Assay [1] relates to PARP, Bax, Bcl-2 in AsPC-1 cells. As to the kind of experiment: PARP cleavage and Bax, Bcl-2 expression in AsPC-1 cells. Format: cell-based. The text has this: FIG. 22 depicts effect of Lupeol treatment on PARP cleavage and on protein expression of Bax, Bcl-2 in AsPC-1 cells.
Assay [2] has as its system Ras, PKCα, ODC, pAkt in AsPC-1 cells. As to the kind of experiment: Ras, PKCα, ODC, PI3K, pAkt expression in AsPC-1 cells. Format: cell-based. The text has this: FIG. 23 depicts effect of Lupeol treatment on the expression of Ras, PKCα, ODC, PI3K (P85), pAkt and total Akt, p38 and Erk1/2 proteins in AsPC-1 cells.
A further assay deals with LNCaP cells. Description: LNCaP viability with anti-Fas mAb alone or combined with Lupeol, MTT assay. Format: cell-based, human. The procedure: FIG. 15 depicts effect of Lupeol treatment in combination with anti-Fas mAb on the growth of LNCaP cells and on the expression of Fas receptor in LNCaP and PrEC cells: (a) Cells were treated with specified concentrations anti-Fas mAb for 48 h and cell viability was determined by MTT assay. The values are represented as the percent viable cells where vehicle-treated cells were regarded as 100% viable. Data represents mean value of percent viable cells±S.E of three independent experiments. V represents control and vehicle (DMSO) treated cells respectively. (b). Cells were treated with specified concentrations of Lupeol alone, anti-Fas mAb or with combination (Lupeol+anti-Fas mAb) for 48 h and cell viability was determined by MTT assay. “a” and “b” represent pre-treatment and co-treatment of cells with anti-Fas mAb respectively. The values are represented as the percent viable cells where vehicle-treated cells were regarded as 100% viable. Data represents mean value of percent viable cells±S.E of three independent experiments.

For assay [3], the system named is I-κBα protein and p65-subunit of NFκB in AsPC-1 cells. Description: Phosphorylation of IκBα and NFκB p65 in AsPC-1 cells. The format is cell-based. The text has this: FIG. 24 depicts effect of Lupeol treatment on the phosphorylation of I-κBα protein and p65-subunit of NFκB transcriptional factor in AsPC-1 cells.
Another assay concerns epidermal ODC. Description: TPA-induced epidermal ODC enzyme activity (14CO2 release). Format: in vivo, mouse. The settings on record: for inhibition of TPA-caused induction of epidermal ODC activity: p<0.005. On the procedure:
FIG. 3. Inhibitory effect of Lupeol on TPA-induced epidermal ODC activity: ODC enzyme activity was determined using 0.4 ml epidermal supernatant by measuring the release of ^14CO2 from the D, L-[^14C]ornithine. Data is represented as mean±SE of four individual values (* represents p<0.005). The epidermis from two animals was pooled for each determination.
The animals were shaved on the dorsal side of the skin, divided into four groups and treated topically on the shaved area with either 0.4 ml vehicle (acetone), or TPA (3.2 nmol/0.4 ml acetone/animal, v/v), or Lupeol (1 or 2 mg/0.2 ml acetone/animal, w/v) followed 30 min later with TPA (3.2 nmol/0.2 ml acetone/animal). Animals were sacrificed at different times point i.e. 6, 12, 24 and 48 h post TPA treatment. The epidermis was separated from the whole skin and homogenized in 0.1 M Tris-HCl buffer (pH 7.2) using a Polytron tissue homogenizer (Brinkmann Instruments, Westbury, N.Y., USA) at 100,000×g supernatant, and microsomal fractions were prepared as described earlier (Katiyar and Mukhtar, 1997). The sample of 6 h treatment group was used to assess the ODC activity as this time point has previously been shown for optimal induction of the enzyme (Katiyar er al., 1996).
ODC enzyme activity was determined using 0.4 ml epidermal supernatant by measuring the release of ^14CO2 from the D, L-[^14C] ornithine as reported earlier. (Gupta et al., 1999). The epidermis from the skin was homogenized at 4° C. in a glass-to-glass homogenizer in 10 volumes of ODC buffer [50 mM Tris-HCl buffer (pH 7.5) containing 0.1 mM EDTA, 0.1 mM dithiothreitol, 0.1 mM pyridoxal-5-phosphate, 1 mM 2-mercaptoethanol and 0.1% Tween-80]. The homogenate was centrifuged at 100,000×g at 4° C. and the supernatant was used for enzyme determination. […] The radioactivity was measured in a Beckman LS 6000 SC liquid scintillation counter. Enzyme activity was expressed as pmol CO2 released/h/mg protein.

For assay [4], the system named is Fas receptor in LNCaP cells. As to the kind of experiment: Fas-siRNA silenced LNCaP cells: Fas expression and viability. The settings on record: vs LNCaP cells with Fas receptor expression treated with Lupeol. The format is cell-based, human. On the procedure:
FIG. 17 depicts effect of Lupeol treatment on the growth of CaP cells transfected with Fas-siRNA and on the expression of Fas receptor in Fas-silenced CaP cells: (A). Cells were treated with specified concentrations of Lupeol alone, anti-Fas mAb or non-sense siRNA (negative control), Fas-siRNA, combination (Lupeol+Fas-siRNA) and combination (anti-Fas mAb+Fas-siRNA). The expression of Fas receptor protein in total cell lysate was determined by western blot analysis. Equal loading was confirmed by stripping immunoblots and reprobing them for β-actin. The immunoblots shown here are representative of three independent experiments with similar results. (B). Cells were treated with specified concentrations of Lupeol alone, anti-Fas mAb or non-sense siRNA (negative control), Fas-siRNA, combination (Lupeol+Fas-siRNA) and combination (anti-Fas mAb+Fas-siRNA). The values represent percent viable cells where vehicle-treated cells were regarded as 100% viable. Data represents mean value of percent viable cells±S.E of three independent experiments.
To determine whether Lupeol induces apoptosis of LNCaP cells selectively through Fas receptor, we used siRNA technology. siRNA's have the ability to silence […] any specific protein. We designed siRNA against Fas receptor protein and treated LNCaP cell with them.

“Also recorded” adds a separate entry of the source.

In the case of `C=C(C)[C@@H]1CC[C@]2(C)CC[C@]3(C)[C@H](CC[C@@H]4[C@@]5(C)CC[C@H](O)C(C)(C)[C@@H]5CC[C@]43C)[C@@H]12` [Lupeol, Lup-20(29)-en-3β-ol], the “expression level of anti-apoptotic protein Bcl-2” value in assay [1] is reported as “no change was observed”. For the same compound, in assay [1] (48 hours), the Bax protein expression result was “increased Bax protein expression” and the “cleavage of PARP” value was “induced cleavage of PARP”. In assay [2], the “expression of Ras protein” value is “decrease”, the “phosphorylation of Akt” value is recorded as “reduction in the phosphorylation of Akt”, the “protein expression of ODC” value is reported as “significant reduction” and the “protein expression of PKCa” value was “significant reduction”. The “combination effect of Lupeol with Fas-agonist (anti-Fas mAb) on cell death” value with LNCaP cells (LNCaP cells, vs additive effect of the two alone) is “synergistic effect; also recorded: significant synergistic manner”. In the assay with LNCaP cells (anti-Fas mAb pretreated LNCaP cells treated with Lupeol (30 μg)), the “cell death of LNCaP cells” value is reported as 95-98%. Further, in assay [3], the “phosphorylation of IkBα” value was “significant reduction” and the “phosphorylation of NFkB” value is reported as “reduction in the phosphorylation of NFkB”. In addition, the “inhibition of TPA-caused induction of epidermal ODC activity” value with epidermal ODC (Lupeol 1 mg/animal topical 30 min prior to TPA) was 50%. Further, the “inhibition of TPA-caused induction of epidermal ODC activity” value with epidermal ODC (Lupeol 2 mg/animal topical 30 min prior to TPA) is 75%. Also, in the assay on epidermal ODC (Lupeol alone (2 mg/animal)), the “basal epidermal ODC activity” value was “without any effect”. In assay [4], the “cell death of Fas-silenced LNCaP cells” value is “reduced cell death”.
